From US20100130477A1, “Spirocyclobutyl Piperidine Derivatives” (ASTRAZENECA AB, priority 2008, published 2010)

Molecular target: T1, human Histamine H3 receptor (hH3R) (Homo sapiens, UniProt Q9Y5N1)
T1 construct: expressed in transfected cells; host or cells: CHO cells (Chinese Hamster Ovary); membranes
Assay: GTPγS Binding Assay (antagonist activity, [35S]GTPγS, (R)-α-methyl histamine 30 nM)
Type: biochemical
Settings: membranes from CHO cells expressing hH3R, 90 minutes at room temperature
Method: Guanosine 5′-O-(3-[^35S]thio)triphosphate [GTPγS] Binding Assay
A GTPγS binding assay can be used to investigate antagonist properties of compounds in CHO cells (Chinese Hamster Ovary) transfected with human Histamine H3 receptor (hH3R). Membranes from CHO cells expressing hH3R (10 μg/well) are diluted in GTPγS assay buffer (20 mM Hepes, 10 mM MgCl2, 100 mM NaCl, pH 7.4) and preincubated with saponine (3 μg/ml), GDP (10 μM) and PVT-WGA SPA beads (125 μg/well) (Amersham) for 30 minutes. To determine antagonist activity, (R)-α-methyl histamine (30 nM) is added in 96 well SPA plate with [^35S]GTPγS (0.2 nM) and various concentration of H3R antagonists. The GTPγS binding assay is started with addition of the mixture membrane/saponine/GDP and incubated for 90 minutes at room temperature. The amount of bound [^35S]GTPγS is determined by using the MicroBeta Trilux counter (PerkinElmer). The percentage of [^35S]GTPγS bound in each sample is calculated as a percentage of that bound control sample incubated in absence of H3 antagonist. Duplicate determinations are obtained for each concentration, and the data are analyzed using ExcelFit4 to obtain the IC50.

T1 sequence (Q9Y5N1 whole entry): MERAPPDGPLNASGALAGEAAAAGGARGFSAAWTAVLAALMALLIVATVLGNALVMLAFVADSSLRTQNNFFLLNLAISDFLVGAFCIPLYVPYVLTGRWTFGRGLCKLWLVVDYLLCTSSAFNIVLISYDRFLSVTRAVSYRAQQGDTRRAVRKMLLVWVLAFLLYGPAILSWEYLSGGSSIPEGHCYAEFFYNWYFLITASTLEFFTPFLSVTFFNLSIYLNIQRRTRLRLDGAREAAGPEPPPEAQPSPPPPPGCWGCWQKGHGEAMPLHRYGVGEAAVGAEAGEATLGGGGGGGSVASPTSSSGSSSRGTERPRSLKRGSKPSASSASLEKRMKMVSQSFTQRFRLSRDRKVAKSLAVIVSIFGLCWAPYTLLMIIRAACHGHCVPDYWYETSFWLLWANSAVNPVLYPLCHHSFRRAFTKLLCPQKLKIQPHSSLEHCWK

IC50 | SMILES
48 nM | O=C(c1ccccn1)N1CCC2(CC1)CC(C(=O)N1CCN(C3CCC3)CC1)C2 [Example 20, (4-cyclobutylpiperazin-1-yl)(7-picolinoyl-7-azaspiro[3.5]nonan-2-yl)methanone]
18.2 nM | O=C(c1cccnc1)N1CCC2(CC1)CC(C(=O)N1CCN(C3CCC3)CC1)C2 [Example 21, (4-cyclobutylpiperazin-1-yl)(7-nicotinoyl-7-azaspiro[3.5]nonan-2-yl)methanone]
35 nM | O=C(c1cc(Cl)ccn1)N1CCC2(CC1)CC(C(=O)N1CCN(C3CCC3)CC1)C2 [Example 17, (7-(4-chloropicolinoyl)-7-azaspiro[3.5]nonan-2-yl)(4-cyclobutylpiperazin-1-yl)methanone]
52.9 nM | O=C(C1CCCCC1)N1CCC2(CC1)CC(C(=O)N1CCN(C3CCC3)CC1)C2 [Example 7, (4-cyclobutylpiperazin-1-yl)(7-(cyclohexanecarbonyl)-7-azaspiro[3.5]nonan-2-yl)methanone]
4.25 nM | C[C@@H]1CN(C2CCC2)CCN1C(=O)C1CC2(CCN(S(C)(=O)=O)CC2)C1 [Example 62, ((R)-4-cyclobutyl-2-methylpiperazin-1-yl)(7-(methylsulfonyl)-7-azaspiro[3.5]nonan-2-yl)methanone]
160 nM | Cc1cc(C(=O)N2CCC3(CC2)CC(C(=O)N2CCCN(C(C)C)CC2)C3)ccn1 [Example 53, (4-isopropyl-1,4-diazepan-1-yl)(7-(2-methylisonicotinoyl)-7-azaspiro[3.5]nonan-2-yl)methanone]
63 nM | CS(=O)(=O)N1CCC2(CC1)CC(C(=O)N1CCN(C3CCCC3)CC1)C2 [Example 58, (4-cyclopentylpiperazin-1-yl)(7-(methylsulfonyl)-7-azaspiro[3.5]nonan-2-yl)methanone]
5.75 nM | Cc1cncc(C(=O)N2CCC3(CC2)CC(C(=O)N2CCCN(C4CCC4)CC2)C3)c1 [Example 46, (4-cyclobutyl-1,4-diazepan-1-yl)(7-(5-methylnicotinoyl)-7-azaspiro[3.5]nonan-2-yl)methanone]
72.9 nM | O=C(C1CC2(CCN(c3ccccc3)CC2)C1)N1CCN(C2CCC2)CC1 [Example 3, (4-cyclobutylpiperazin-1-yl)(7-phenyl-7-azaspiro[3.5]nonan-2-yl)methanone]
5.28 nM | N#Cc1ccc(C(=O)N2CCC3(CC2)CC(C(=O)N2CCCN(C4CCC4)CC2)C3)cc1 [Example 49, 4-(2-(4-cyclobutyl-1,4-diazepane-1-carbonyl)-7-azaspiro[3.5]nonane-7-carbonyl)benzonitrile]
31.3 nM | N#Cc1ccc(C(=O)N2CCC3(CC2)CC(C(=O)N2CCN(C4CCC4)CC2)C3)nc1 [Example 15, 6-(2-(4-cyclobutylpiperazine-1-carbonyl)-7-azaspiro[3.5]nonane-7-carbonyl)nicotinonitrile]
6.56 nM | O=C(C1CC2(CCN(S(=O)(=O)c3ccccc3)CC2)C1)N1CCN(C2CCC2)CC1 [Example 6, (4-cyclobutylpiperazin-1-yl)(7-(phenylsulfonyl)-7-azaspiro[3.5]nonan-2-yl)methanone]
67.4 nM | CC(C)N1CCN(C(=O)C2CC3(CCN(C(=O)c4cccnc4)CC3)C2)CC1 [Example 36, (4-isopropylpiperazin-1-yl)(7-nicotinoyl-7-azaspiro[3.5]nonan-2-yl)methanone]
12.6 nM | O=C(c1ccncc1)N1CCC2(CC1)CC(C(=O)N1CCN(C3CCC3)CC1)C2 [Example 22, (4-cyclobutylpiperazin-1-yl)(7-isonicotinoyl-7-azaspiro[3.5]nonan-2-yl)methanone]
8.9 nM | O=C(C1CC2(CCN(S(=O)(=O)c3ccc(F)cc3)CC2)C1)N1CCCN(C2CCC2)CC1 [Example 38, (4-cyclobutyl-1,4-diazepan-1-yl)(7-(4-fluorophenylsulfonyl)-7-azaspiro[3.5]nonan-2-yl)methanone]
24.5 nM | N#Cc1cccc(C(=O)N2CCC3(CC2)CC(C(=O)N2CCN(C4CCC4)CC2)C3)c1 [Example 31, 3-(2-(4-cyclobutylpiperazine-1-carbonyl)-7-azaspiro[3.5]nonane-7-carbonyl)benzonitrile]
8.45 nM | Cc1cnccc1C(=O)N1CCC2(CC1)CC(C(=O)N1CCCN(C3CCC3)CC1)C2 [Example 44, (4-cyclobutyl-1,4-diazepan-1-yl)(7-(3-methylisonicotinoyl)-7-azaspiro[3.5]nonan-2-yl)methanone]
27 nM | O=C(C1CC2(CCN(c3ccccn3)CC2)C1)N1CCN(C2CCC2)CC1 [Example 2, (4-cyclobutylpiperazin-1-yl)(7-(pyridin-2-yl)-7-azaspiro[3.5]nonan-2-yl)methanone]
61.9 nM | CC(C)N1CCN(C(=O)C2CC3(CCN(C(=O)c4ccncc4)CC3)C2)CC1 [Example 35, (7-isonicotinoyl-7-azaspiro[3.5]nonan-2-yl)(4-isopropylpiperazin-1-yl)methanone]
24.5 nM | Cc1cccnc1C(=O)N1CCC2(CC1)CC(C(=O)N1CCN(C3CCC3)CC1)C2 [Example 19, (4-cyclobutylpiperazin-1-yl)(7-(3-methylpicolinoyl)-7-azaspiro[3.5]nonan-2-yl)methanone]
22.9 nM | CCc1cnccc1C(=O)N1CCC2(CC1)CC(C(=O)N1CCN(C3CCC3)CC1)C2 [Example 8, (4-cyclobutylpiperazin-1-yl)(7-(3-ethylisonicotinoyl)-7-azaspiro[3.5]nonan-2-yl)methanone]
368 nM | C[C@H]1CN(C(=O)C2CC3(CCN(S(C)(=O)=O)CC3)C2)CCN1C1CCC1 [Example 59, ((S)-4-cyclobutyl-3-methylpiperazin-1-yl)(7-(methylsulfonyl)-7-azaspiro[3.5]nonan-2-yl)methanone]
80.4 nM | O=C(c1ncc(F)cc1F)N1CCC2(CC1)CC(C(=O)N1CCN(C3CCC3)CC1)C2 [Example 16, (4-cyclobutylpiperazin-1-yl)(7-(3,5-difluoropicolinoyl)-7-azaspiro[3.5]nonan-2-yl)methanone]
15 nM | O=C(c1ccccn1)N1CCC2(CC1)CC(C(=O)N1CCCN(C3CCC3)CC1)C2 [Example 42, (4-cyclobutyl-1,4-diazepan-1-yl)(7-picolinoyl-7-azaspiro[3.5]nonan-2-yl)methanone]
12.6 nM | O=C(Cc1cccnc1)N1CCC2(CC1)CC(C(=O)N1CCN(C3CCC3)CC1)C2 [Example 27, 1-(2-(4-cyclobutylpiperazine-1-carbonyl)-7-azaspiro[3.5]nonan-7-yl)-2-(pyridin-3-yl)ethanone]
12.7 nM | O=C(c1ccccc1)N1CCC2(CC1)CC(C(=O)N1CCCN(C3CCC3)CC1)C2 [Example 48, (7-benzoyl-7-azaspiro[3.5]nonan-2-yl)(4-cyclobutyl-1,4-diazepan-1-yl)methanone]
15.4 nM | CC(C)S(=O)(=O)N1CCC2(CC1)CC(C(=O)N1CCN(C3CCC3)CC1)C2 [Example 4, (4-cyclobutylpiperazin-1-yl)(7-(isopropylsulfonyl)-7-azaspiro[3.5]nonan-2-yl)methanone]
7.62 nM | N#Cc1cccc(C(=O)N2CCC3(CC2)CC(C(=O)N2CCCN(C4CCC4)CC2)C3)c1 [Example 50, 3-(2-(4-cyclobutyl-1,4-diazepane-1-carbonyl)-7-azaspiro[3.5]nonane-7-carbonyl)benzonitrile]
16.9 nM | Cc1ccnc(C)c1C(=O)N1CCC2(CC1)CC(C(=O)N1CCN(C3CCC3)CC1)C2 [Example 11, (4-cyclobutylpiperazin-1-yl)(7-(2,4-dimethylnicotinoyl)-7-azaspiro[3.5]nonan-2-yl)methanone]
